The record followed here is patent US20240059658A1 (Emory University, priority 2019, published 2024).

One experiment concerns the target T1, MDM2 (Homo sapiens, UniProt Q00987).
T1 construct: ubiquitination of endogenous MDM2 in EU-1 cells; endogenous in cells; host or cells: EU-1 (ALL) cells
The experiment is described as follows: MDM2 reduction / expression (Western blot). Format: cell-based. The conditions noted are these: words or +/− grades, key not given. The protocol: (§1) Cells were lysed in a buffer composed of 50 mM Tris, pH 7.6, 150 mM NaCl, 1% Nonidet P-40, 10 mM sodium phosphate, 10 mM NaF, 1 mM sodium orthovanadate, 2 mM phenylmethylsulfonyl fluoride (PMSF), […], 10 μg/mL leupeptin and 10 μg/mL pepstatin. After centrifugation, the clarified cell lysate was separated from the pellet of cell debris, and then incubated with 15 μL Protein G/Protein A-agarose and 1 μg of antibodies, overnight at 4° C. For the Western blot, the resulting cell lysates or immunoprecipitates were resolved by SDS-PAGE. They were then transferred to a nitrocellulose filter and probed with the specific antibodies as listed in the supplemental Materials section. Finally, proteins were visualized with a chemiluminescent detection system.

A further experiment deals with EU-1. The experiment is described as follows: WST cytotoxicity assay, cancer cell EU-1. Format: cell-based, human. The following applies: Homo sapiens, EU-1, EU-1; no other cell line named in the cell; read-out: Cancer cell (EU-1) cytotoxicity IC50. Put shortly:
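Pediatric ALL and NB lines grown in RPMI 1640 with 10% FBS at 37 °C, 5% CO2. Cells were exposed to a range of compound concentrations for 20 h, then WST (25 μg/well) was added for a further 4 h. OD read at 450 nm against a 620 nm reference.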

Another experiment deals with p53. The experiment is described as follows: p53 induction / expression (Western blot). Format: cell-based. The following applies: words or +/− grades, key not given. As for the experimental part:
as §1

T1 sequence (Q00987 whole entry): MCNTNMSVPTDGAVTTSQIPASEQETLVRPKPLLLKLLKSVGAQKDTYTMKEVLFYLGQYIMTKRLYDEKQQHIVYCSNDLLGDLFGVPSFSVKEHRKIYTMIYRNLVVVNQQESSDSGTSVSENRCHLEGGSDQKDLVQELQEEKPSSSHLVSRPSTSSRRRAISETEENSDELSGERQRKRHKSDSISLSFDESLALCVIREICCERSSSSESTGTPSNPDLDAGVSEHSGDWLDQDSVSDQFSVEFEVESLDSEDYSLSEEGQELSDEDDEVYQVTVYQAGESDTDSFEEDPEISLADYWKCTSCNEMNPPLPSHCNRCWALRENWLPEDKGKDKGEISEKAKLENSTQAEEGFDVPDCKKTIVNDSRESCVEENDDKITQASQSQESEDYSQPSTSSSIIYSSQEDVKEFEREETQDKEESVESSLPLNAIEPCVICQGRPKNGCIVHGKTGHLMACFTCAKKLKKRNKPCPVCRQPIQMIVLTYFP

Regarding `CC(=O)c1cccc(C2Nc3ccc(S(=O)(=O)Nc4ccc(C)c(C)c4)cc3C3OCC[C@@H]23)c1` (stereo in doubt) [Compound 69L93, 4-(3-acetylphenyl)-N-(3,4-dimethylphenyl)-2,3,3a,4,5,9b-hexahydrofuro[3,2-c]quinoline-8-sulfonamide], the MDM2 reduction entry on MDM2 was “inhibition”. The IC50 in the experiment with EU-1 amounted to 1950 nM. In addition, the p53 induction result with p53 is listed as “induction”.
As to `CC(=O)c1cccc(C2CC(=O)c3cc(S(=O)(=O)Nc4ccc5c(c4)CCO5)ccc3N2)c1` (stereo not drawn) [Compound 69L123, 2-(3-acetylphenyl)-N-(2,3-dihydrobenzofuran-5-yl)-4-oxo-1,2,3,4-tetrahydroquinoline-6-sulfonamide], the MDM2 reduction result at MDM2 is “inhibition”. The IC50 in the experiment on EU-1 was less than 100 nM.
For `Cc1ccc(NS(=O)(=O)c2ccc3c(c2)[C@H]2C=CC[C@H]2[C@H](c2ccc(C(=O)C(C)C)cc2)N3)cc1C` [Compound 69L80] the same measures were “No MDM2” and 2660 nM.
For `CC(C)C(=O)c1ccc(C2Nc3ccc(S(=O)(=O)N[C@H]4CC[C@H](C)CC4)cc3[C@H]3OCC[C@@H]23)cc1` (stereo partly drawn) [Compound 69L78] the same measures were “No MDM2” and 3670 nM.
For `Cc1ccc(NS(=O)(=O)c2ccc3c(c2)C2OCC[C@H]2C(c2ccc(C(=O)c4ccccc4)cc2)N3)cc1C` (stereo in doubt) [Compound 69L54] the same measures were “inhibition” and 3220 nM.
In the case of `Cc1ccc(NS(=O)(=O)c2ccc3c(c2)[C@H]2OCC[C@H]2C(c2ccc(C(=O)C4CCCCC4)cc2)N3)cc1C` (stereo partly drawn) [Compound 69L70], the MDM2 reduction result on MDM2 is “No MDM2”. Besides, the IC50 in the experiment with EU-1 turned out to be 3090 nM.
In the case of `Cc1ccc(NS(=O)(=O)c2ccc3c(c2)[C@H]2OCC[C@H]2[C@H](C2CCC(C(C)C)CC2)N3)cc1C` (stereo partly drawn) [Compound 69L56, N-(3,4-dimethylphenyl)-4-(4-isopropylcyclohexyl)-2,3,3a,4,5,9b-hexahydrofuran[3,2-c]quinolone-8-sulfonamine], the MDM2 reduction entry on MDM2 is reported as “inhibition”. Also, the IC50 with EU-1 was 10200 nM.
For `CC(=O)c1ccc([C@@H]2Nc3ccc(S(=O)(=O)Nc4ccc(C)c(C)c4)cc3[C@H]3C=CC[C@H]32)cc1` [Compound 69L48], in that order: “inhibition” and 3800 nM.
For `Cc1ccc(NS(=O)(=O)c2ccc3c(c2)C(=O)CC(c2ccc(C(=O)C(C)C)cc2)N3)cc1Cl` (stereo not drawn) [Compound 69L107, N-(3-chloro-4-methylphenyl)-2-(4-isobutyrylphenyl)-4-oxo-1,2,3,4-tetrahydroquinoline-6-sulfonamide] the same measures were “inhibition” and 930 nM.
For `Cc1ccc(NS(=O)(=O)c2ccc3c(c2)C2OCC[C@H]2C(c2ccc(C(=O)C(C)C)cc2)N3)cc1C` (stereo partly drawn) [Compound 69L96], in that order: “inhibition” and 2080 nM.
As to `CC(=O)c1ccc(NS(=O)(=O)c2ccc3c(c2)[C@H]2OCC[C@H]2C(c2ccc(C(=O)C(C)C)cc2)N3)cc1` (stereo partly drawn) [Compound 69L98, N-(4-acetylphenyl)-4-(4-isobutyrylphenyl)-2,3,3a,4,5,9b-hexahydrofuro[3,2-c]quinoline-8-sulfonamide], on MDM2, the MDM2 reduction entry was “inhibition”. In addition, in the experiment with EU-1, the IC50 was determined as 1500 nM. The p53 induction entry in the experiment on p53 was “induction”.
`Cc1cc(NS(=O)(=O)c2ccc3c(c2)C(=O)CC(c2ccc(C(=O)C(C)C)cc2)N3)ccc1F` (stereo not drawn) [Compound 69L108, N-(4-fluoro-3-methylphenyl)-2-(4-isobutyrylphenyl)-4-oxo-1,2,3,4-tetrahydroquinoline-6-sulfonamide]: the MDM2 reduction entry on MDM2 was “inhibition”. Also, the IC50 in the experiment on EU-1 was 420 nM.
For `Cc1ccc(NS(=O)(=O)c2ccc3c(c2)C2OCC[C@H]2C(c2cccc(C(=O)C(C)C)c2)N3)cc1C` (stereo partly drawn) [Compound 69L94] the same measures were “No MDM2” and 3560 nM.
For `Cc1cc(NS(=O)(=O)c2ccc3c(c2)[C@H]2OCC[C@H]2C(c2ccc(C(=O)C(C)C)cc2)N3)ccc1F` (stereo partly drawn) [Compound 69L79] the same measures were “No MDM2” and 2910 nM.
For `CC(=O)c1cccc(NS(=O)(=O)c2ccc3c(c2)C(=O)CC(c2cccc(C(C)=O)c2)N3)c1` (stereo not drawn) [Compound 69L121, N,2-bis(3-acetylphenyl)-4-oxo-1,2,3,4-tetrahydroquinoline-6-sulfonamide] the same measures were “inhibition” and 180 nM.
In the case of `CC(C)c1ccc(C2Nc3ccc(S(=O)(=O)Nc4cccc(C(C)O)c4)cc3[C@H]3OCC[C@@H]23)cc1` (stereo partly drawn) [Compound 69L116], at MDM2, the MDM2 reduction result is listed as “No MDM2”. The IC50 in the experiment with EU-1 came to 120 nM.
For `CC(=O)c1ccc(NS(=O)(=O)c2ccc3c(c2)[C@H]2OCC[C@H]2C(c2cccc(C(C)=O)c2)N3)cc1` (stereo in doubt) [Compound 69L101, 4-(3-acetylphenyl)-N-(4-acetylphenyl)-2,3,3a,4,5,9b-hexahydrofuro[3,2-c]quinoline-8-sulfonamide] the same measures were “inhibition” and 1800 nM.
For `CC(=O)c1cccc(C2CC(=O)c3cc(S(=O)(=O)Nc4ccc(F)c(C)c4)ccc3N2)c1` (stereo not drawn) [Compound 69L109, 2-(3-acetylphenyl)-N-(4-fluoro-3-methylphenyl)-4-oxo-1,2,3,4-tetrahydroquinoline-6-sulfonamide] the same measures were “No MDM2” and 100 nM.
For `CC(C)C(=O)c1ccc(C2Nc3ccc(S(=O)(=O)Nc4ccccc4)cc3[C@H]3OCC[C@@H]23)cc1` (stereo partly drawn) [Compound 69L75], in that order: “No MDM2” and 3210 nM.
With `CC(=O)c1ccc(C2CC(=O)c3cc(S(=O)(=O)Nc4ccc(C)c(C)c4)ccc3N2)cc1` (stereo not drawn) [Compound 69L83, 2-(4-acetylphenyl)-N-(3,4-dimethylphenyl)-4-oxo-1,2,3,4-tetrahydroquinoline-6-sulfonamide], the MDM2 reduction result on MDM2 is “inhibition”. For the same compound, the IC50 in the experiment on EU-1 is 1170 nM. In the experiment on p53, the p53 induction entry was “inhibition”.
On to `CC(C)C(=O)c1ccc(C2Nc3ccc(S(=O)(=O)Nc4ccc5c(c4)CCO5)cc3[C@H]3OCC[C@@H]23)cc1` (stereo partly drawn) [Compound 69L117], for which the MDM2 reduction result on MDM2 is on record as “No MDM2”. Also, the IC50 with EU-1 was found to be 300 nM.
Turning to `Cc1ccc(NS(=O)(=O)c2ccc3c(c2)[C@H]2OCC[C@H]2C(c2ccc(C(=O)C(C)C)cc2)N3)cc1Cl` (stereo partly drawn) [Compound 69L73, N-(3-chloro-4-methylphenyl)-4-(4-isobutyrylphenyl)-2,3,3a,4,5,9b-hexahydrofuran[3,2-c]quinolone-8-sulfonamide], the MDM2 reduction entry on MDM2 is “No MDM2”. Also, the IC50 with EU-1 stood at 1560 nM.
Consider `CC(C)C(=O)c1ccc(C2CC(=O)c3cc(S(=O)(=O)Nc4ccc(Cl)c(Cl)c4)ccc3N2)cc1` (stereo not drawn) [Compound 69L100, N-(3,4-dichlorophenyl)-2-(4-isobutyrylphenyl)-4-oxo-1,2,3,4-tetrahydroquinoline-6-sulfonamide], for which the MDM2 reduction result on MDM2 is recorded as “No MDM2”. The IC50 with EU-1 turned out to be 1870 nM.
For `O=S(=O)(Nc1ccccc1)c1ccc2c(c1)[C@H]1OCC[C@H]1[C@H](C1CCCCC1)N2` [Compound 69L66] the same measures were “No MDM2” and 2560 nM.
On to `Cc1ccc(NS(=O)(=O)c2ccc3c(c2)[C@H]2OCC[C@H]2[C@H](C2CCNCC2)N3)cc1C` [Compound 69L55], for which the MDM2 reduction result at MDM2 is “No MDM2”. Moreover, in the experiment on EU-1, the IC50 was 1640 nM.
On to `Cc1ccc(NS(=O)(=O)c2ccc3c(c2)C2OCC[C@H]2C(c2ccc(C(O)C(C)C)cc2)N3)cc1C` (stereo in doubt) [Compound 69L87, N-(3,4-dimethylphenyl)-4(4-(1-hydroxy-2-methylpropyl)phenyl)-2,3,3a,4,5,9b-hexahydrofuro[3,2-c]quinoline-8-sulfonamide], for which the MDM2 reduction entry at MDM2 is “inhibition”. The IC50 in the experiment on EU-1 was 1980 nM. Also, the p53 induction entry in the experiment on p53 was “inhibition”.
Consider `CCCC(=O)c1ccc(C2Nc3ccc(S(=O)(=O)Nc4ccc(C)c(C)c4)cc3[C@H]3OCC[C@@H]23)cc1` (stereo partly drawn) [Compound 69L72], for which the MDM2 reduction result on MDM2 is recorded as “No MDM2”. For the same compound, in the experiment with EU-1, the IC50 was 2940 nM.
For `CC(=O)c1cccc(NS(=O)(=O)c2ccc3c(c2)[C@H]2OCC[C@H]2C(c2cccc(C(C)=O)c2)N3)c1` (stereo in doubt) [Compound 69L103, N,4-bis(3-acetylphenyl)-2,3,3a,4,5,9b-hexahydrofuro[3,2-c]quinoline-8-sulfonamide], in that order: “No MDM2” and 970 nM.
